Where a SMILES comes first, the peptide text is derived from it. Where no end group is shown, it is not given here. [ ]: non-standard residue; d: D form.
Tests used:
HaCat = format: cell-based; conditions: 24 h
Method: (§1) The percentage of cancer cell survival after being treated with peptides was assessed with 3-(4,5-dimethylthiazol-2-yl-)-2,5-diphenyltetrazolium bromide (MTT). The principle is the reduction process of the yellow tetrazolium to DMSO-soluble formazan crystals caused by the metabolic capability of living cells. All the cancerous and normal cells were obtained from the American Type Culture Collection (Rockville, VA, USA). Human lung cancer NCI-H838 and NCI-H460 were cultured in Roswell Park Memorial Institute (RPMI)-1640 medium (Gibco, Paisley, UK) and mixed with 10% (v/v) fetal bovine serum (FBS) (Gibco, Campinas, Brazil) and 1% penicillin–streptomycin (Gibco, Grand Island, NY, USA) 89/10/1 v/v/v). U251MG and MCF-7 were cultured in Dulbecco’s Modified Eagle medium (DMEM) (Gibco, Paisley, UK) and mixed with 10% FBS and 1% penicillin–streptomycin. HCT 116 was cultured in McCoy’s 5A (modified) medium (Gibco, Paisley, UK) and mixed with 10% FBS and 1% penicillin–streptomycin. MRC-5 and HaCat were cultured in Minimum Essential Medium (MEM) (Gibco, Paisley, UK) and mixed with 10% FBS and 1% penicillin–streptomycin. Cells were cultured and seeded in a 96-well plate at a density of 8000 cells/well with the corresponding medium and incubated for 24 h at 37 °C with 5% CO2. After 24 h of incubation, the cells were starved with a serum-free medium for 4 h at 37 °C. Then, the cells were incubated with different concentrations of peptide solution in a serum-free medium from 1 nM to 100 µM at 37 °C for 24 h. Meanwhile, triton X-100 (0.1%) (Sigma-Aldrich, St. Louis, MO, USA) and PBS were chosen as positive and negative controls. After 10 µL of MTT (5 mg/mL) was added to each well away from light and incubated at 37 °C for 2 h, the formazan generated by mitochondria was dissolved with DMSO. The absorbance was detected at a wavelength of 570 nm by a Synergy HT plate reader (Bio-Tek, Shoreline, WA, USA).

MRC-5 = format: cell-based; conditions: 24 h
Method: as §1

MCF-7 = format: cell-based, human; conditions: 24 h
Method: as §1

NCI-H838 = format: cell-based, human; conditions: 24 h
Method: as §1

A. baumannii (BAA 747) = format: cell-based, Acinetobacter baumanni; conditions: BAA 747, 24 h
Text: (§2) Seven microorganism strains were used to preliminarily evaluate the antimicrobial activity of PSTO2 and its analogues, including Staphylococcus aureus (S. aureus) (ATCC® 6538), methicillin-resistant Staphylococcus aureus (MRSA) (NCTC® 12493), Enterococcus faecalis (E. faecalis) (NCTC® 12697), E. coli (ATCC® 8739), Klebsiella pneumonia (K. pneumonia) (ATCC® 43816), Pseudomonas aeruginosa (P. aeruginosa) (ATCC® CRM 9027), Acinetobacter baumanni (A. baumanni) (BAA® 747), and Candida albicans (C. albicans) (ATCC® 10231). In this study, the strains were cultured in Mueller–Hinton broth (MHB), nutrient broth (NB), and yeast–peptone–dextrose broth (YPD-B) correspondingly at 37 °C, with shaking at 120 rpm. Each peptide was dissolved from 128 μM to 1 μM and mixed with the bacterium at 5 × 10^5 CFU/mL. In this process, bacteria with culture medium were used as the growth control group; PBS was set up as the vehicle control group; sterile culture medium was used as the blank control group; and Norfloxacin at a concentration of 2 mg/mL and amphotericin B at a concentration of 1 mg/mL were set up as the positive control group for bacteria and fungi, respectively.
(§3) After being incubated for 24 h, a Synergy HT plate reader (Bio-Tek, Shoreline, WA, USA) was used to detect the absorbance of each well in the 96-well plate at λ = 550 nm. The concentration at which no visible turbidity could be recorded was the MIC value. Beginning from the MIC value, 10 µL of solution in each clear well was dropped on the sterile agar plates. The plate was checked the next day for colony formation, and the lowest concentration at which no colony growing was recorded as an MBC value.

S. aureus (ATCC 6538) = format: cell-based, Staphylococcus aureus; conditions: ATCC 6538, 24 h
Text: as §2, §3

E. coli (ATCC 8739) = format: cell-based, Escherichia coli; conditions: ATCC 8739, 24 h
Text: as §2, §3

[1] = test system: P. aeruginosa (ATCC 9027); format: cell-based, Pseudomonas aeruginosa; conditions: ATCC 9027, 24 h
Text: as §2, §3

C. albicans = format: cell-based, Candida albicans; conditions: 24 h
Text: as §2, §3

[2] = test system: MRSA (ATCC 12493) biofilm; format: cell-based, methicillin-resistant Staphylococcus aureus; conditions: ATCC 12493, 24 h
Method: (§4) To test the anti-biofilm ability of PSTO2 and its analogues, three types of microorganisms (S. aureus ATCC® 6538, E. coli ATCC® 8739, and MRSA NCTC® 12493) were chosen. Tryptic soy broth (TSB) and Lysogeny broth (LB) were used to culture microorganisms. The peptide was dissolved in an autoclaved PBS solution and diluted into concentrations ranging from 51,200 µM to 100 µM. One µL of peptide solution of each concentration was added into a 96-well plate with 100 µL bacterium at 5 × 10^5 CFU/mL. The plate was incubated at 37 °C for 24 h, with shaking at 200 rpm. After overnight incubation, the planktonic bacteria were washed up. Then, 100 µL of methanol was used to fix the biofilms onto the bottom, and 100 µL of 0.1% crystal violet solution (Sigma-Aldrich, Gillingham, UK) was added to each well to stain the biofilms. After drying, 160 µL of acetic acid (30% in deionised water, Sigma-Aldrich, UK) was added to each well to dissolve the shaded parts. The absorbance was detected with the Synergy HT plate reader at λ = 595 nm.
(§5) For the MBEC assay, 100 µL of the bacterium of 5 × 10^5 CFU/mL was transferred into an empty 96-well plate, and the plate was incubated at 37 °C for 24 h to obtain the biofilms primarily. Then, the peptide solution from 512 µM to 1 µM was transferred into a corresponding well, followed by 24 h incubation at 37 °C, with shaking at 200 rpm. After this, the plate was handled using the identical method to the plate in the MBIC assay, and the absorbance of each well was detected with the Synergy HT plate reader at λ = 595 nm. The minimum concentration at which the peptide can eradicate the existing biofilm was recorded as the MBEC value.

[3] = test system: E. coli (ATCC 8739) biofilm; format: cell-based, Escherichia coli; conditions: ATCC 8739, 24 h
Method: as §4, §5

CC[C@H](C)[C@H](NC(=O)[C@H](C)NC(=O)[C@@H](CCCCN)NC(=O)[C@@H]1CCCN1C(=O)[C@@H](NC(=O)[C@H](CC(C)C)NC(=O)[C@H](CO)NC(=O)[C@H](CC(C)C)NC(=O)[C@@H](N)Cc1ccccc1)[C@@H](C)CC)C(=O)N[C@@H](CCCCN)C(=O)N[C@@H](C)C(=O)N[C@H](C(=O)N[C@@H](CCCCN)C(=O)N[C@@H](C)C(=O)N[C@@H](CC(C)C)C(=O)N[C@@H](C)C(=O)N[C@@H](CCCCN)C(=O)N[C@H](CCCCN)C(=O)N[C@@H](CC(C)C)C(N)=O)C(C)C [SR2D10] (H-FLSLIP[dK]AIKAVKALAK[dK]L-NH2)
IC50 (HaCat): 84.03 µM
IC50 (MRC-5): 74.39 µM
IC50 (MCF-7): 26.4 µM
IC50 (NCI-H838): 9.49 µM
MBC (A. baumannii (BAA 747)): 16/16 μM
MIC (A. baumannii (BAA 747)): 16/16 μM
MBC (S. aureus (ATCC 6538)): 1/1 μM
MBC (E. coli (ATCC 8739)): 2 µM
MIC (E. coli (ATCC 8739)): 2 µM
MBC [1]: 32 µM
MIC [1]: 32 µM
MBC (C. albicans): 128 µM
MIC (C. albicans): 64 µM
MBEC [2]: 32 µM
MBIC [2]: 16 µM
MBEC [3]: 64 µM
MBIC [3]: 32 µM

CC[C@H](C)[C@H](NC(=O)[C@H](C)NC(=O)[C@@H](CCCCN)NC(=O)[C@@H]1CCCN1C(=O)[C@@H](NC(=O)[C@H](CC(C)C)NC(=O)[C@H](CO)NC(=O)[C@H](CC(C)C)NC(=O)[C@@H](N)Cc1ccccc1)[C@@H](C)CC)C(=O)N[C@@H](CCCCN)C(=O)N[C@@H](C)C(=O)N[C@H](C(=O)N[C@@H](CO)C(=O)N[C@@H](C)C(=O)N[C@@H](CC(C)C)C(=O)N[C@@H](C)C(=O)N[C@@H](CCCCN)C(=O)N[C@@H](CCCCN)C(=O)N[C@@H](CC(C)C)C(N)=O)C(C)C [SRD7] (H-FLSLIP[dK]AIKAVSALAKKL-NH2)
IC50 (HaCat): 77.89 µM
IC50 (MRC-5): 77.28 µM
IC50 (MCF-7): 15.2 µM
IC50 (NCI-H838): 3.32 µM
MBC (A. baumannii (BAA 747)): 16/16 μM
MBC (S. aureus (ATCC 6538)): 1/1 μM
MBC (E. coli (ATCC 8739)): 2 µM
MIC (E. coli (ATCC 8739)): 2 µM
MBC [1]: 16 µM
MIC [1]: 16 µM
MBC (C. albicans): 64 µM
MIC (C. albicans): 32 µM
MBEC [2]: 16 µM
MBIC [2]: 4 µM
MBEC [3]: 64 µM
MBIC [3]: 32 µM

FLSLIPKAIKAVKALAKKL-NH2 [SR2]
IC50 (HaCat): 3.48 µM
IC50 (MRC-5): 6.56 µM
IC50 (MCF-7): 7.83 µM
IC50 (NCI-H838): 3.13 µM
MBC (A. baumannii (BAA 747)): 2/2 μM
MBC (S. aureus (ATCC 6538)): 2 µM
MIC (S. aureus (ATCC 6538)): 2 µM
MBC (E. coli (ATCC 8739)): 2 µM
MIC (E. coli (ATCC 8739)): 2 µM
MBC [1]: 32 µM
MBC (C. albicans): 64 µM
MIC (C. albicans): 32 µM
MBEC [2]: 16 µM
MBEC [3]: 16 µM
MBIC [3]: 8 µM

FLSLIPKAIKAVSALAKKL-NH2 [SR]
IC50 (HaCat): 4.13 µM
IC50 (MRC-5): 6.98 µM
IC50 (MCF-7): 6.05 µM
IC50 (NCI-H838): 2.88 µM
MBC (A. baumannii (BAA 747)): 4/4 μM
MBC (S. aureus (ATCC 6538)): 2 µM
MIC (S. aureus (ATCC 6538)): 2 µM
MBC (E. coli (ATCC 8739)): 2 µM
MIC (E. coli (ATCC 8739)): 2 µM
MBC [1]: 32 µM
MBC (C. albicans): 128 µM
MIC (C. albicans): 32 µM
MBEC [2]: 16 µM
MBEC [3]: 16/16 μM
MBIC [3]: 16/16 μM

Source: publication PMC11360180, “Enhancement of Antimicrobial Function by L/D-Lysine Substitution on a Novel Broad-Spectrum Antimicrobial Peptide, Phylloseptin-TO2: A Structure-Related Activity Research Study” (Pharmaceutics, 2024)
